Results on 17 compounds are retold here after PMC5052702 (Nature Communications, 2016).

Assay [1] addresses T1, CVB3 3C protease (Coxsackievirus B3, UniProt P03313).
T1 construct: 3C protease of Coxsackie virus B3 consisting of 183 amino-acid residues; made in house; host or cells: E. coli BL21(DE3), plasmid pET-23a(+)
Nature of the assay: FRET-based enzyme activity assay (warhead activation / inhibitor kinetics). It is filed as biochemical, Coxsackie virus B3. Particulars: for kinact/KI: relative inactivation rate, slope of kobs against inhibitor concentration; for IC50: read-out: IC50. On the procedure: The activity of the protease was measured by hydrolysis of the FRET-substrate N-Dabcyl-KTLEALFQ↓GPPVYE(Edans)-NH2. The peptide was purchased from Biosyntan (Berlin, Germany). Samples were irradiated with light with a wavelength of 355 nm and the emitted light at 538 nm was measured in relative fluorescence units (RFUs). An amount of 100 pmol of cleaved substrate equals 5,000 RFU.
Assay samples contained 10 μl of a 100 mM HEPES-NaOH buffer solution pH 7.5/1 mM EDTA, 10 μl enzyme solution (2 μM CVB3 3C^Pro), 10 μl of 10 μM substrate solution (both dissolved in the above buffer) and 1 μl Inhibitor and/or fragment dissolved in DMSO. For assay results of a dilution series of a mixture of 1 and 2 and comparison of reaction products in dependence of the assay solvent, see Supplementary Figs 1 and 2.
The screening procedure consisted of the following steps: 10 μl 100 mM HEPES-NaOH buffer solution pH 7.5/1 mM EDTA was placed in a cavity of the 384-well plate (polystyrene, Corning 3544). Then 10 μl of enzyme solution (40 μM CVB3 3C protease in 100 mM HEPES-NaOH buffer solution, pH 7.5/1 mM EDTA) was added and the plate was shaken for 2 min at 1,400 r.p.m. Afterwards, 0.5 μl of a DMSO solution of the electrophilic probe and 0.5 μl of a DMSO solution of the nucleophile was added, followed by 10 μl of substrate solution (10 μM in 100 mM HEPES-NaOH buffer solution, pH 7.5/1 mM EDTA). The plate was shaken again for 2 min at 1,400 r.p.m. and the generated fluorescence signal was measured with a Safire II Fluorimeter from Tecan. The electrophilic probe 1 was used at a concentration of 400 μM for the screening, which lowered the protease activity by 10–20%. Eight-hundred fifty primary amines were tested at a concentration of 320 μM and fragment 2 amplified the inhibitory activity of 1 most potently. Positive control samples contained only DMSO instead of the probe or the nucleophile. Negative control samples contained no active enzyme. An interfering fluorescent effect has not been observed.
When determining the inhibitory parameters of an inhibitor, the assay set-up was as mentioned but 1 μl DMSO solution of inhibitor was used instead of probe or nucleophile. Different concentrations of inhibitor were tested at least as duplicates and the pseudo-first-order association kinetics (kobs) were determined using GraphPad Prism. The slope of a plot of the different kobs values against the inhibitor concentration yielded kinact/KI.

The target of assay [2] is EV-B93 3C protease (Enterovirus B93 (species Enterovirus B), UniProt Q5DSM6). Nature of the assay: In vitro proteolytic activity assay (HPLC, 3 h incubation). The class given is biochemical, human enterovirus B93. As for the experimental part: (§1) For 12 and 14, the inhibitory activity decreased for EV-B93>PSV-1>ERBV-1>AiV-1>EV-D68>HRV-A49.
(§2) A volume of 100 μl of reaction mixture containing 1.9 μM 3C protease, 25 μM substrate peptide, 5% DMSO, buffer (30 mM Tris pH 8.0, and 50 mM NaCl or 50 mM HEPES pH 7.4 and 50 mM NaCl) and (optionally) different concentrations of inhibitor was incubated in 37 °C during 3 h. The reaction was quenched by addition of 0.5% (final concentration) TFA. Samples were analysed by HPLC on SOURCE 15RPC ST 4.6/100 column using: 2–90% linear gradient of ACN in 0.1% TFA. The 3C protease activity in the absence of inhibitor was defined as 100%. The following peptides (GL Biochem, Shanghai, China) were dissolved in DMSO at a concentration of 5 mM and used for testing 3C proteases activity (Table 3).

For assay [3], the target named is PSV-1 3C protease (Porcine sapelovirus 1, UniProt Q8JJT0). The description is as above. The class given is biochemical. As for the experimental part: as §1, §2
For assay [4], the target named is T2, EV-D68 3C protease (Human enterovirus D68, UniProt Q68T42).
T2 construct: a panel of six additional rhinoviral and enteroviral 3C proteases; purchased European Virus Archive
The description is as above. The class given is biochemical. As for the experimental part: as §1, §2

For assay [5], the target named is ERBV-1 3C protease (Equine rhinitis B virus 1, UniProt Q66776). Described as above. The class given is biochemical. On the procedure:
as §1, §2

Assay [6] deals with T3, AiV-1 3C protease (Aichi virus, UniProt O91464).
T3 construct: a panel of six additional rhinoviral and enteroviral 3C proteases; purchased European Virus Archive
The assay is described as above. It is filed as biochemical, Aichi virus 1. On the procedure: as §1, §2

The target in assay [7] is HRV-A49 3C protease (Rhinovirus A49, UniProt A5GZE5). The assay is described as above. It is filed as biochemical, human rhinovirus A49. As for the experimental part:
as §1, §2

Assay [8] concerns the target T4, Human Caspase-3 (Homo sapiens, UniProt P42574).
T4 sequence (P42574 29-175 limits assumed): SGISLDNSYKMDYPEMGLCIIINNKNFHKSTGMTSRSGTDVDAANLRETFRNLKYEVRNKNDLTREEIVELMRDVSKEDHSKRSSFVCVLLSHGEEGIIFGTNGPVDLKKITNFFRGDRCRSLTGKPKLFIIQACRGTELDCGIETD
T4 sequence (P42574 176-277 limits assumed): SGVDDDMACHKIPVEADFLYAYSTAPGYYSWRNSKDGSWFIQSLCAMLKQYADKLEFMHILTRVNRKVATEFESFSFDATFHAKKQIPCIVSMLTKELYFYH
Description: Side reactivity testing against different proteases. The class given is biochemical. As for the experimental part:
(§3) The four enzymes cover a broad range of S1-preferences, namely for arginine/lysine (trypsin, factor Xa), hydrophobic residues (chymotrypsin) and aspartate (caspase-3).
(§4) Supplementary Table 3. Side reactivity testing of selected compounds against different
(§5) Cpd# Structure Trypsin1) Chymotrypsin2) Human factor Xa3) Human Caspase-34) […]
4) in 50 mM HEPES-NaOH pH 7.5 / 100 mM NaCl / 1 mM EDTA / 0.1% (w/v) CHAPS / 10% (v/v) glycerol /2 mM DTT
with 10 µM acetyl-DEVD-AMC as substrate;

Assay [9] addresses Human factor Xa (Homo sapiens, UniProt P00742). The description is as above. It is filed as biochemical. As for the experimental part:
as §3, §4, §5
3) in 50 mM MOPS-NaOH pH 8.0 / 154 mM NaCl with 114 µM Boc-LGR-AMC as substrate; […]

For assay [10], the target named is T5, CBV 3C protease (Coxsackievirus B3, UniProt P03313).
T5 construct: 3C protease of Coxsackie virus B3 consisting of 183 amino-acid residues; made in house; host or cells: E. coli BL21(DE3), plasmid pET-23a(+)
Nature of the assay: In vitro proteolytic activity assay (3 h incubation). Particulars: fixed enzyme concentration. It is filed as biochemical, Coxsackie virus B3. As for the experimental part: as §2

Assay [11] deals with Chymotrypsin. Description: Side reactivity testing against different proteases. The class given is biochemical. As for the experimental part:
as §3, §4, §5
2) in 50 mM MOPS-NaOH pH 8.0 / 154 mM NaCl with 1.6 mM AF-AMC as substrate. […]

Assay [12] concerns Trypsin. The description is as above. The class given is biochemical. The settings on record: 50 mM MOPS-NaOH pH 8.0 / 154 mM NaCl, 57 µM Boc-LGR-AMC as substrate. On the procedure:
as §3, §4
Cpd# Structure Trypsin1) Chymotrypsin2) Human factor Xa3) Human Caspase-34)
1) in 50 mM MOPS-NaOH pH 8.0 / 154 mM NaCl with 57 µM tert. butyloxycarbonyl (Boc)-LGR-7-amino-4-
methylcoumarin (AMC) as substrate; […]

The mark [13] stands for this setting: protein inhibitor stoichiometries of 1:1 and 1:3.
Setting [14] is: fixed enzyme concentration, 3 h incubation.

Values joined by “and” are separate entries in the source; they are usually repeats but may differ in a detail not shown here. Equal values may be shown once. Read-outs that look alike come from different tables or passages of the source.

Human factor Xa, sequence (P00742 235-488 limits assumed): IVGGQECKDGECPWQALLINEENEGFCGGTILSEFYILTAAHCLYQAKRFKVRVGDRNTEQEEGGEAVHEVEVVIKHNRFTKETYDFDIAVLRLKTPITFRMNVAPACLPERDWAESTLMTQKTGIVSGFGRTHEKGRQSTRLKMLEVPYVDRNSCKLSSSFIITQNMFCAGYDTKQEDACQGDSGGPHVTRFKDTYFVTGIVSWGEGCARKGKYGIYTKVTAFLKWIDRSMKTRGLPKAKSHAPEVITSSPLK
Human factor Xa, sequence (P00742 41-179 partner limits assumed): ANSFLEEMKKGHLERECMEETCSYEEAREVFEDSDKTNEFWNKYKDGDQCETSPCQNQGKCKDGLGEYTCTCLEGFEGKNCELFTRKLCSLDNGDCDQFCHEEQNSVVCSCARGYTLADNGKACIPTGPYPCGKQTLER

As to `Nc1cc(=O)[nH]n1C1CCCCCC1` [Compound 2, 5-amino-1-cycloheptyl-1,2-dihydropyrazol-3-one], the “inhibition of the protease, in words” value in assay [1] is “virtually inactive”. Moreover, the “reduction of the enzyme's activity (inhibition)” value in assay [1] (fragments alone or combined at the same concentrations, ligation assay) is “no more than 10%”.
As to `CCOC(=O)[C@H]1O[C@@H]1Cc1c(N)n(C2CCCCCC2)[nH]c1=O` [Compound 3], the kinact/KI in [1] (read-out: kinact/KI) is 3.7 ± 0.2 M⁻¹ s⁻¹.
For `CCOC(=O)[C@H]1O[C@@H]1C(=O)Nc1cc(=O)[nH]n1C1CCCCCC1` [Compound 4], in [1], the “inhibition of the protease, in words” value is given as “reversible inhibitor” and the IC50 stood at 142 ± 5.6 µM.
For `CCOC(=O)[C@H]1O[C@H]1C(=O)Nc1cc(=O)[nH]n1C1CCCCCC1` [Compound 5], the “inhibition of the protease, in words” value in assay [1] is “inactive”.
Regarding `O=C(NCc1cccc2ccccc12)[C@H]1O[C@@H]1C(=O)Nc1cc(=O)[nH]n1C1CCCCCC1` [Compound 6], the “inhibition of the protease, in words” value in assay [1] was “inactive”.
For the compound `CCOC(=O)/C=C/Cc1c(N)n(C2CCCCCC2)[nH]c1=O` [Compound 7], the kinact/KI in [1] was 0.4 M⁻¹ s⁻¹ and 0.42 ± 0.01 M⁻¹ s⁻¹.
Same read-out and setting: to `CCOC(=O)/C=C/C(=O)c1c(N)n(C2CCCCCC2)[nH]c1=O` [Compound 8] belongs 132 M⁻¹ s⁻¹ and 131.7 ± 4.2 M⁻¹ s⁻¹.
On to `CCOC(=O)/C=C/C(=O)Nc1cc(=O)[nH]n1C1CCCCCC1` [Compound 9], for which the “inhibition of the protease, in words” value in assay [1] was “inactive”.
In the case of `CCOC(=O)/C=C/C(=O)c1c(N)n(-c2ccccc2)[nH]c1=O` [Compound 10], the kinact/KI in assay [1] (read-out: kinact/KI) is 14.7 ± 0.9 M⁻¹ s⁻¹.
Consider `CCOC(=O)/C=C/C(=O)Oc1cc(N)n(C2CCCCCC2)n1` [Compound 11], for which, in [1], the IC50 amounted to 20.2 ± 1.6 µM.
With `CCOC(=O)/C=C\C(=O)Nc1cc(=O)[nH]n1C1CCCCCC1` [Compound 12], the kinact/KI in assay [1] is 606 M⁻¹ s⁻¹ and 606.4 ± 24.9 M⁻¹ s⁻¹. For the same compound, the “reduction of protease activity” value in [2] (setting [13]), in assay [3] (setting [13]), in assay [4] (setting [13]), in assay [5] (setting [13]), in assay [6] (setting [13]) and in assay [7] (setting [13]) was “strongly reduced the activity” throughout.
For the compound `CCOC(=O)/C=C\C(N)=O` [Compound 13], the kinact/KI in assay [1] is 34 M⁻¹ s⁻¹ and 34.7 ± 1.5 M⁻¹ s⁻¹.
As to `CCNC(=O)/C=C\C(=O)Nc1cc(=O)[nH]n1C1CCCCCC1` [Compound 14], the IC50 was > 500 µM in assay [8] (50 mM HEPES-NaOH pH 7.5, 10 µM acetyl-DEVD-AMC as substrate); > 500 µM in assay [9] (50 mM MOPS-NaOH pH 8.0 / 154 mM NaCl, 114 µM Boc-LGR-AMC as substrate); 13 µM in assay [10]; 4 µM in assay [2] (setting [14]); > 500 µM in assay [11] (50 mM MOPS-NaOH pH 8.0 / 154 mM NaCl, 1.6 mM AF-AMC as substrate); 8 µM in assay [3] (setting [14]). Moreover, the IC50 is > 20 µM in assay [4] (fixed enzyme concentration, 3 h incubation, read-out: IC50 HEV-D68); > 10 µM in assay [5] (setting [14]); 9 µM in assay [6] (setting [14]); > 500 µM in [12]; > 20 µM in [7] (setting [14]). In addition, the “activity against caspase-3, in words” value in assay [8] (at concentrations of 100 μM) is “inactive”. Further, the “activity against factor Xa, in words” value in assay [9] (at concentrations of 100 μM) was “inactive”. For the same compound, the “fold reduction of inactivation rate relative to ethyl ester 12” value in assay [1] was 10 fold. Further, the kinact/KI in assay [1] is 63.1 ± 3.1 M⁻¹ s⁻¹; in [1] (read-out: kinact/KI), 63 M⁻¹ s⁻¹. The “inhibition of the enzyme” value in [2] (one inhibitor equivalent) is “fully inhibited”. The “activity against chymotrypsin, in words” value in assay [11] (at concentrations of 100 μM) is “inactive”.
Regarding `CCNC(=O)/C=C\C(=O)NCC` [Compound 15], in assay [1], the “inhibition of the protease, in words” value was “fully inactive”.
Consider `CCCC(CCC)n1[nH]c(=O)cc1NC(=O)/C=C\C(=O)OCC` [Compound 17], for which, in [1] (read-out: kinact/KI), the kinact/KI came to 217 ± 30.7 M⁻¹ s⁻¹.
Consider `CCOC(=O)/C=C\C(=O)Nc1cc(=O)[nH][nH]1` [Compound 18], for which, in assay [1] (read-out: kinact/KI), the kinact/KI was 11.7 ± 0.5 M⁻¹ s⁻¹.
As for `CC(C)n1[nH]c(=O)cc1NC(=O)/C=C/S(=O)(=O)c1ccccc1` [Compound 21], in assay [1] (read-out: kinact/KI), the kinact/KI came to 542 ± 6.3 M⁻¹ s⁻¹.
